Test results: PubChem BioAssay (NCI)
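Step 1: Grow cells in 96-well plates. Step 2: Expose to compound for 48 hours at 5 concentrations. Step 3: Interpolate endpoints linearly; if unreached, use highest concentration. GI50 is the concentration that inhibits growth by half. Definition used: TGI = concentration required for complete inhibition of growth.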

Legend:
Test in all cases: NCI anticancer screen, dose series, 48 h
[1] = test system: SW-620 colon
[2] = test system: SNB-19 CNS
[3] = test system: SK-OV-3 ovarian
[4] = test system: UO-31 renal
[5] = test system: K-562 leukemia
[6] = test system: HL-60(TB) leukemia
[7] = test system: CAKI-1 renal
[8] = test system: UACC-62 melanoma
[9] = test system: NCI-H522 lung
[10] = test system: U251 CNS
[11] = test system: NCI-H23 lung
[12] = test system: MOLT-4 leukemia
[13] = test system: EKVX NSCLC
[14] = test system: COLO 205 colon
[15] = test system: HCT-116 colon
[16] = test system: TK-10 renal
[17] = test system: KM12 colon
[18] = test system: ACHN renal
[19] = test system: NCI/ADR-RES ovarian
[20] = test system: HOP-92 NSCLC
[21] = test system: MALME-3M melanoma
[22] = test system: A549 NSCLC
[23] = test system: HOP-62 NSCLC
[24] = test system: SF-268 CNS
[25] = test system: CCRF-CEM leukemia
[26] = test system: A498 renal
[27] = test system: SK-MEL-5 melanoma
[28] = test system: MCF7 breast
[29] = test system: NCI-H460 lung

Question: Which GI50 [1] does the source give for `CN(C)CCNc1c2c(c(NCCN(C)C)c3[nH]ccc13)C(=O)c1ccccc1C2=O` here?
Answer: Its GI50 is 385 nM.

Question: And the TGI [1]?
Answer: The TGI was 2970 nM.

Question: What about the GI50 [2] of the same compound?
Answer: The GI50 was 930 nM.

Question: And the TGI [2]?
Answer: The TGI was 12100 nM.

Question: What about the GI50 [3] of the same compound?
Answer: Its GI50 is 5570 nM.

Question: And the TGI [3]?
Answer: The TGI was 17700 nM.

Question: What about the GI50 [4] of the same compound?
Answer: Its GI50 is 2280 nM.

Question: And the TGI [4]?
Answer: Its TGI is over 100000 nM.

Question: And the GI50 [5]?
Answer: The GI50 was 654 nM.

Question: What about the GI50 [6] of the same compound?
Answer: The GI50 was 1390 nM.

Question: And the GI50 [7]?
Answer: Its GI50 is 2560 nM.

Question: And the TGI [7]?
Answer: The TGI was 6720 nM.

Question: What about the GI50 [8] of the same compound?
Answer: The GI50 was 1640 nM.

Question: And the TGI [8]?
Answer: The TGI was 14800 nM.

Question: And the GI50 [9]?
Answer: Its GI50 is 3300 nM.

Question: And the TGI [9]?
Answer: Its TGI is over 100000 nM.

Question: What about the GI50 [10] of the same compound?
Answer: Its GI50 is 507 nM.

Question: And the TGI [10]?
Answer: The TGI was 15900 nM.

Question: What about the GI50 [11] of the same compound?
Answer: Its GI50 is 1820 nM.

Question: And the GI50 [12]?
Answer: Its GI50 is 199 nM.

Question: What about the GI50 [13] of the same compound?
Answer: Its GI50 is 903 nM.

Question: What about the TGI [13] of the same compound?
Answer: The TGI was 2650 nM.

Question: And the GI50 [14]?
Answer: Its GI50 is 4320 nM.

Question: What about the TGI [14] of the same compound?
Answer: Its TGI is over 100000 nM.

Question: And the GI50 [15]?
Answer: Its GI50 is 281 nM.

Question: And the GI50 [16]?
Answer: Its GI50 is 1570 nM.

Question: And the TGI [16]?
Answer: The TGI was 5140 nM.

Question: And the GI50 [17]?
Answer: Its GI50 is 347 nM.

Question: And the TGI [17]?
Answer: The TGI was 2260 nM.

Question: And the GI50 [18]?
Answer: The GI50 was 476 nM.

Question: What about the TGI [18] of the same compound?
Answer: Its TGI is 5560 nM.

Question: And the GI50 [19]?
Answer: Its GI50 is 887 nM.

Question: What about the GI50 [20] of the same compound?
Answer: The GI50 was 6080 nM.

Question: And the TGI [20]?
Answer: The TGI was 28500 nM.

Question: What about the GI50 [21] of the same compound?
Answer: The GI50 was 3300 nM.

Question: And the TGI [21]?
Answer: Its TGI is 11900 nM.

Question: What about the GI50 [22] of the same compound?
Answer: The GI50 was 748 nM.

Question: And the TGI [22]?
Answer: Its TGI is 13300 nM.

Question: And the GI50 [23]?
Answer: Its GI50 is 894 nM.

Question: And the TGI [23]?
Answer: Its TGI is 9270 nM.

Question: What about the GI50 [24] of the same compound?
Answer: Its GI50 is 1390 nM.

Question: And the TGI [24]?
Answer: The TGI was 5910 nM.

Question: And the GI50 [25]?
Answer: The GI50 was 281 nM.

Question: And the GI50 [26]?
Answer: The GI50 was 11300 nM.

Question: What about the TGI [26] of the same compound?
Answer: Its TGI is 25100 nM.

Question: What about the GI50 [27] of the same compound?
Answer: The GI50 was 1810 nM.

Question: And the TGI [27]?
Answer: Its TGI is 3880 nM.

Question: And the GI50 [28]?
Answer: Its GI50 is 371 nM.

Question: What about the GI50 [29] of the same compound?
Answer: The GI50 was 462 nM.

Question: And the TGI [29]?
Answer: The TGI was 2870 nM.
